Test results published in patent US20230310479A1, “LOW DOSE ADJUVANT EPIGENETIC CANCER THERAPY” (THE JOHNS HOPKINS UNIVERSITY, priority 2019, published 2023).
Where two headings read alike, the source gives them in different places.

Assays:
[1] = cited from earlier work
CCR2 = CCR2 expression in monocytic MDSCs (cDNA array, quantitative PCR, FACS); format: in vivo, mouse; settings: three days of treatment, 30 or 75 mg/kg/d orally, LLC mice
Text: FIGS. 2A-2G. […] FACS and graphs showing percentages and absolute numbers of the donor-derived-cell subset (CD45.1^+ cells) in both lungs of the recipient LLC mice (n=3 mice per group). FIG. 2C: Cell-sorting schema for collecting monocytic MDSCs on day 3 after resection (left). Volcano plots showing differences in RNA expression of monocytic MDSCs from the bone marrow (BM) or lung between low-dose-AET-and vehicle-treated LLC mice (right) (n=3 biological replicates). FIG. 2D: Agilent cDNA array expression of chemokines and chemokine receptors in monocytic MDSCs from bone marrow or lungs of low-dose-AET-and vehicle-treated LLC mice (n=3 biological replicates). False-discovery-rate (FDR)-adjusted P values of CCR2 are 0.005 (bone marrow) and 0.016 (lung). Cxcr7 is also known as Ackr3. […] In the FACS plot, red represents low-dose AET and blue represents mock treatment. […]
FIGS. 10A-10H. […] CD45.1^+ cells (transferred polymorphonuclear MDSCs) were identified in the lungs of the recipient mice and analyzed by flow cytometry (right, n=3 mice per group). […] CD45.1^+ cells (transferred polymorphonuclear MDSCs) were identified in the lungs of the recipient CD45.2 mice and analyzed by flow cytometry at 18 h after transfer (right, n=3 mice per group). […] Gene-set enrichment P values, NES values and FDR values reported are calculated with 1,000 permutations in the GSEA software. […]

| SMILES | solubility ([1]; in acetone, ethanol and methyl ketone) | solubility ([1]; in dimethylsulfoxide (DMSO)) | solubility ([1]; in ethanol/water (50/50), propylene glycol and polyethylene glycol) | solubility ([1]; in water, water-saturated octanol, 5% dextrose in water, N-methyl-2-pyrrolidone, normal saline and 5% Tween 80 in water) | expression of CCR2 in monocytic MDSCs from bone marrow in vivo (CCR2) |
| --- | --- | --- | --- | --- | --- |
| Nc1ncn([C@@H]2O[C@H](CO)[C@@H](O)[C@H]2O)c(=O)n1 [5-azacitidine, 4-amino-1-β-D-ribofuranozyl-s-triazin-2(1H)-one] | insoluble | soluble | slightly soluble | sparingly soluble | – |
| Cc1ccc2nc(NCCN)c3ncc(C)n3c2c1 [BMS-345541] | – | – | – | – | decreased expression |
